Measurements as given in publication PMC8605905 (Oxidative Medicine and Cellular Longevity, 2021).
“Also recorded” adds a separate entry of the source.

Key:
Format in all cases: cell-based, Human
CRE-GFP 293 cells = assay: CRE-GFP 293 reporter cell assay (flow cytometry); details: 5–10 μM, 5 h, in the presence or absence of Ca2+ ionophore (2 μM)
Aβ-GFP SH-SY5Y cells [1] = assay: ROS assay (CellROX Orange) in Aβ-GFP cells; details: tested 1.2–5 μM
Experimental: On day 1, Aβ-GFP or ∆K280 tauRD-DsRed SH-SY5Y cells were seeded into 96-well plates (2.5 × 10^4/well) and treated with retinoic acid (10 μM; Sigma-Aldrich) to prompt neuronal differentiation. […] On day 8, cells were stained with Hoechst 33342 (0.1 μg/ml; Sigma-Aldrich) for 30 min, and cell images were automatically captured at excitation/emission wavelengths of 482/[…] (GFP fluorescence) or 543/593 nm (DsRed fluorescence) using a high content analysis (HCA) system (Micro Confocal High-Content Imaging System). Image Acquisition and Analysis Software (MetaXpress) (Molecular Devices, Sunnyvale, CA, USA) was used to analyse the images. CellROX Orange (5 μM; Molecular Probes, Eugene, OR, USA) (for Aβ-GFP cells) or dichloro-dihydro-fluorescein diacetate (DCFH-DA, 10 μM; Invitrogen) (for ∆K280 tauRD-DsRed cells) was added to the cells and incubated at 37°C for 30 min. The HCA system was used to measure intracellular ROS at 531/593 nm (CellROX Orange fluorescence) or 482/536 nm (DCFH-DA fluorescence) of excitation/emission wavelengths.

Aβ-GFP SH-SY5Y cells [2] = assay: Real-time PCR of Aβ-GFP RNA; details: 5 μM
Experimental: To measure the Aβ-GFP/tauRD-DsRed RNA expression on day 8, total RNA was extracted from collected cells and reverse-transcribed to cDNA (SuperScript III reverse transcriptase; Invitrogen, Waltham, MA, USA). Real-time quantitative PCR was performed using 100 ng of cDNA and the gene-specific TaqMan fluorogenic probe PN4331348 (EGFP) or customized Assays-by-Design probe for DsRed and 4326321E (HPRT1) (StepOnePlus Real-time PCR system, Applied Biosystems, Foster City, CA, USA). The RNA expression level was calculated using the formula 2^ΔCt, ΔCT = CT (control) − CT (target), in which CT indicates the cycle threshold.

[3] = tested on: ∆K280 tauRD-DsRed SH-SY5Y cells; assay: High content analysis of neurite outgrowth in ΔK280 tauRD-DsRed cells; details: 10 μM

Structure (SMILES): CN(C)c1ccc(/C=C/C(=O)c2c(O)c3ccccc3oc2=O)cc1 [LM-021, (E)-3-(3-(4-(dimethylamino)phenyl)acryloyl)-4-hydroxy-2H-chromen-2-one]
- CRE-motif-driven GFP expression (CRE-GFP 293 cells): significantly activated
- Concentration effectively decreasing ROS levels caused by Aβ overexpression (Aβ-GFP SH-SY5Y cells [1]): 1.2 to 5 µM
- Aβ-GFP RNA levels (Aβ-GFP SH-SY5Y cells [2]): did not significantly modify
- Neurite length and branches [3]: successfully ameliorated; also recorded: ameliorated the defects
